According to the supplement of paper PMC13380429:

How the values were obtained:
Conditions in all cases: 72 h
Vero E6 [1] = assay: drug sensitivity score (DSS) for viability; higher = more toxic; extreme values may be limits of the assay
Calu-3 [2] = assay: as above
Caco-2 [3] = assay: as above
HepG2 [4] = assay: as above
U2OS [5] = assay: as above
Vero E6 [6] = assay: cell viability relative to DMSO; higher = less toxic
Calu-3 [7] = assay: as above
Caco-2 [8] = assay: as above
HepG2 [9] = assay: as above
U2OS [10] = assay: as above
Vero E6 [11] = assay: relative viability EC50 (midpoint between 100% and the lowest measured viability); higher = less toxic
Calu-3 [12] = assay: as above
Caco-2 [13] = assay: as above
HepG2 [14] = assay: as above
U2OS [15] = assay: as above

Structure (SMILES)	drug sensitivity score (Vero E6 [1])	drug sensitivity score (Calu-3 [2])	drug sensitivity score (Caco-2 [3])	drug sensitivity score (HepG2 [4])	drug sensitivity score (U2OS [5])	cell viability (Vero E6 [6]; 1 nM) [%]	cell viability (Vero E6 [6]; 10 nM) [%]	cell viability (Vero E6 [6]; 100 nM) [%]	cell viability (Vero E6 [6]; 1000 nM) [%]	cell viability (Vero E6 [6]; 10000 nM) [%]	cell viability (Calu-3 [7]; 1 nM) [%]	cell viability (Calu-3 [7]; 10 nM) [%]	cell viability (Calu-3 [7]; 100 nM) [%]	cell viability (Calu-3 [7]; 1000 nM) [%]	cell viability (Calu-3 [7]; 10000 nM) [%]	cell viability (Caco-2 [8]; 1 nM) [%]	cell viability (Caco-2 [8]; 10 nM) [%]	cell viability (Caco-2 [8]; 100 nM) [%]	cell viability (Caco-2 [8]; 1000 nM) [%]	cell viability (Caco-2 [8]; 10000 nM) [%]	cell viability (HepG2 [9]; 1 nM) [%]	cell viability (HepG2 [9]; 10 nM) [%]	cell viability (HepG2 [9]; 100 nM) [%]	cell viability (HepG2 [9]; 1000 nM) [%]	cell viability (HepG2 [9]; 10000 nM) [%]	cell viability (U2OS [10]; 1 nM) [%]	cell viability (U2OS [10]; 10 nM) [%]	cell viability (U2OS [10]; 100 nM) [%]	cell viability (U2OS [10]; 1000 nM) [%]	cell viability (U2OS [10]; 10000 nM) [%]	relative viability EC50 (Vero E6 [11]) [µM]	relative viability EC50 (Calu-3 [12]) [µM]	relative viability EC50 (Caco-2 [13]) [µM]	relative viability EC50 (HepG2 [14]) [µM]	relative viability EC50 (U2OS [15]) [µM]
CCOC(=O)C1=C(C)NC(=S)NC1c1cccc(O)c1 (stereo not given) [monastrol]	0	0	0	0	0	104	108	102	97.6	97.9	89.7	95.1	95.6	100	103	103	94.6	94.1	96	96.8	99.3	107	96.2	99.4	101	103	99	103	98.7	104	> 10	> 10	> 10	> 10	> 10
C[N+]1([O-])[C@@H]2CC[C@H]1C[C@@H](OC(=O)C(CO)c1ccccc1)C2 (stereo not given in full) [atropine-oxide]	0	0	0	0	0	88.2	103	102	111	95.5	97.6	93.3	98.6	94.4	102	84	96.6	99.3	90.2	93.9	88	99.2	95.8	98.6	94.5	97.4	107	101	102	96.5	> 10	> 10	> 10	> 10	> 10
CN(C)CCCN1c2ccccc2Sc2ccccc21 [promazine]	0	0	0	0.1	0	102	100	95.1	97.2	96	93.7	102	95.2	95.6	101	95.5	98.3	93.6	96.1	102	102	89.6	102	93.5	87.6	98.7	102	96.4	96.3	99.5	> 10	> 10	> 10	> 10	> 10
CN1CCN(c2nc3ccccc3nc2Cl)CC1	0	0	0	0	0	101	102	103	94.2	97.5	93.4	105	106	92.4	98.3	89.4	90.5	98.3	88.4	91.6	97.2	92.9	104	93	95.9	95.9	97.6	99	103	96.3	> 10	> 10	> 10	> 10	> 10
CN(C)C(=O)[C@H](O)[C@H](Cc1ccccc1)NC(=O)c1cc2cc(Cl)ccc2[nH]1	0	0	0	0	0	108	94.6	102	98.3	106	96.2	104	97	102	102	87.2	97	96.2	106	96.8	103	96	106	105	106	95.4	102	90.5	95.3	97	> 10	> 10	> 10	> 10	> 10
Cc1cc(-c2nncc3c(C(C)(C)C)c(OCc4ncnn4C)nn23)no1 [MRK-016]	0	0	0	0	0	100	102	98.5	97.6	94.5	104	111	108	93.9	100	97.7	104	96.6	89	97.2	105	94.9	104	98.1	96.8	101	104	99.1	101	102	> 10	> 10	> 10	> 10	> 10
CCCN1CCCC(c2cccc(O)c2)C1 (stereo in doubt) [preclamol]	0	0	0	0	0	90.5	99.2	95.1	98.3	91.8	110	110	112	93.5	99.6	107	94.9	106	93.1	99.6	95.6	110	107	112	99.6	102	103	102	99.1	101	> 10	> 10	> 10	> 10	> 10
